The values below come from US9951058B2, “Compound, pharmaceutically acceptable salt or optical isomer thereof, method for preparing the same, and pharmaceutical composition for prevention or treatment of viral diseases containing same as active ingredient” (Korea Research Institute of Chemical Technology, priority 2012, dated 2018).

Data set [1] deals with HRV 14. In words: Cytopathic effect (CPE) inhibition assay. The class given is cell-based, human rhinovirus. The conditions noted are these: for EC50: Human rhinovirus sp., HeLa, 72 h, read-out: EC50 HRV 14. A general note: Cytopathic effects are the visible damage that an infection or toxin causes in cultured cells.
For data set [2], the system named is HRV 21. The data set can be described thus: Cytopathic effect (CPE) inhibition assay. The conditions noted are these: for EC50: Human rhinovirus sp., 72 h, read-out: EC50 HRV 21. The class given is cell-based, human rhinovirus.
Data set [3] relates to coxsackievirus B1 (Cox B1). In words: Multicycle cytopathic effect (CPE) reduction assay. The class given is cell-based. Particulars: for EC50 CoxB1: 100 CCID50, MTS, 37° C., 3 days; for EC50: Enterovirus B, B1, 72 h, read-out: EC50 CoxB1.
The subject of data set [4] is coxsackievirus B3 (Cox B3). The data set can be described thus: Multicycle cytopathic effect (CPE) reduction assay. The conditions noted are these: for EC50 CoxB3: 100 CCID50, MTS, 37° C., 3 days; for EC50: Enterovirus B, B3, 72 h, read-out: EC50 CoxB3. The class given is cell-based.
Data set [5] has as its system HeLa (human cervical cancer cells). The data set can be described thus: Cytotoxicity (CC50) in mock-infected cells, CPE inhibition assay, MTT. Particulars: Table 3; mock-infected cells, MTT assay, 2-3 days. On the technique in general: Tetrazolium dyes change colour on reduction, which living cells bring about.
For data set [6], the system named is poliovirus 3 (PV3). The data set can be described thus: microbe, parasite or virus in culture. The class given is cell-based. Particulars: for EC50 PV3: 100 CCID50, MTS, 37° C., 3 days; for EC50: Enterovirus C, 72 h, read-out: EC50 PV3.
The test system of data set [7] is HeLa. The data set can be described thus: Cytotoxicity (CC50) in multicycle CPE reduction assay, MTS. The conditions noted are these: Table 4; MTS, 37° C., 3 days.
Data set [8] deals with HRV 71. The data set can be described thus: Cytopathic effect (CPE) inhibition assay. The class given is cell-based, human rhinovirus. The conditions noted are these: for EC50: Human rhinovirus sp., 72 h, read-out: EC50 HRV 71.
For data set [9], the system named is rhinoviruses and enteroviruses. Particulars: cited from earlier work.
A short description of data set [10]: Cytotoxicity (CC50) in mock-infected cells, CPE inhibition assay, MTT. Particulars: human.
Data set [11] is described as follows: Cytotoxicity (CC50) in multicycle CPE reduction assay, MTS. The conditions noted are these: human.
For data set [12] the following is noted: in vivo, cited from earlier work.
For data set [13] the following is noted: cited from earlier work; for therapeutic effect: clinical.
Data set [14] concerns HeLa (human cervical cancer cells).
A short description of data set [15]: in vitro. Particulars: human.
The test system of data set [16] is 48 rhinovirus types and coxsackievirus A21, B3, enterovirus 70 and echovirus 11. The conditions noted are these: Pattick et al. 1999; cited from earlier work.
Setting [17] is: host cell HeLa, 3 days, MEM/2% FBS, MTT assay.

Converted amounts (≈) assume the structure as drawn. Where two headings read alike, the source gives them in different places.

As to “N-(4b-hydroxy-7-isopropyl-4-nitro-10-oxo-4b, 10-dihydro-9bH-indeno[1,2-b]benzofuran-9b-yl)-2-oxo-4-phenyl butanamide [Example 59]”, the “EC50 HRV 14” value in data set [1] (setting [17]) is below 0.1 µg/mL. For the same molecule, in [2] (setting [17]), the “EC50 HRV 21” value is above 8.6 µg/mL. In [3], the “EC50 CoxB1” value is below 0.1 µg/mL. The “EC50 CoxB3” value in [4] was below 0.1 µg/mL. The “CC50 Cytotoxicity” value is 8.6 µg/mL in data set [5] and above 10.0 µg/mL in data set [7]. Besides, the “EC50 PV3” value in [6] is below 0.1 µg/mL. For the same molecule, the “EC50 HRV 71” value in data set [8] (setting [17]) is above 8.6 µg/mL.

With `CCOC(=O)c1ccc(OCCC2CCN(c3ccc(C)nn3)CC2)cc1` [pirodavir], the “antiviral effects in the cell culture” value in [9] is listed as “very good antiviral effects”.

As for `CC(C)c1ccc2c(c1)OC1(O)c3c(cccc3[N+](=O)[O-])C(=O)C21NC(=O)C(=O)Cc1ccccc1[N+](=O)[O-]` (stereo not drawn) [Example 25, N-(4b-hydroxy-7-isopropyl-4-nitro-10-oxo-4b, 10-dihydro-9bH-indeno[1,2-b]benzofuran-9b-yl)-3-(2-nitrophenyl)-2-oxo propanamide], the EC50 in [1] was above 2.6 µg/mL; in [2] (HeLa) it was above 2.6 µg/mL; in data set [3], below 1 µg/mL; in [4], below 1 µg/mL; in data set [6], above 9.5 µg/mL; in [8] (HeLa) it was above 2.6 µg/mL. The CC50 in data set [10] is 2.6 µg/mL (≈ 4.89 µM). The molecule further yielded a CC50 at 3 days in data set [11] of 9.5 µg/mL (≈ 17.9 µM).

Regarding `CCC(=O)C(CCCCCCOc1ccc(OC)cc1Cl)C(=O)CC` [arildone], the bioavailability result in [12] is “low bioavailability”. For the same molecule, the “antiviral effects in the cell culture” value in data set [9] is recorded as “very good antiviral effects”.

Take `Cc1cc(CCCCCCCOc2ccc(C3=NCCO3)cc2)on1` [disoxaril]: in data set [12], the bioavailability result was “low bioavailability”; the metabolization and excretion entry is “rapid metabolization and excretion”. In data set [9], the “antiviral effects in the cell culture” value is “very good antiviral effects”.

In the case of `Cc1cc(CCCOc2c(C)cc(-c3noc(C(F)(F)F)n3)cc2C)on1` [Pleconaril], the oral bioavailability result in data set [12] (po) was “very good oral bioavailability”. Moreover, the therapeutic effect result in data set [13] is “therapy success was too low”. In addition, the side effects result in data set [13] (in vivo) is “side effects were observed”.

Take `Cc1cc(CCCCCOc2c(Cl)cc(C3=NCCO3)cc2Cl)on1` [WIN 54954]: the metabolization and excretion entry in data set [12] was “rapid metabolization and excretion”. Besides, the side effects entry in [13] (in vivo) was “skin rash”.

Take `CC(C)S(=O)(=O)n1c(N)nc2ccc(/C(=N/O)c3ccccc3)cc21` [Enviroxime]: the therapeutic effect result in [13] was “few or no therapeutic effects”. For the same molecule, in data set [13] (in vivo), the pharmacokinetics entry is recorded as “insufficient pharmacokinetics” and the side effects entry was “unwanted side effects”.

Take `CC(C)c1ccc2c(c1)OC1(O)c3ccccc3C(=O)C21NC(=O)CCC(=O)O` (stereo not drawn) [Example 57, 4-((4b-hydroxy-7-isopropyl-10-oxo-4b, 10-dihydro-9bH-indeno[1,2-b]benzofuran-9b-yl)amino)-4-oxo butanoic acid]: in data set [1] (setting [17]), the “EC50 HRV 14” value was below 10.0 µg/mL. Moreover, the “EC50 HRV 21” value in data set [2] (setting [17]) is above 10.0 µg/mL. The “EC50 CoxB1” value in [3] was below 1.0 µg/mL. The “EC50 CoxB3” value in data set [4] was below 1.0 µg/mL. In addition, the “CC50 Cytotoxicity” value in data set [14] and in data set [7] was above 10.0 µg/mL each time. Further, the “EC50 PV3” value in data set [6] was above 10.0 µg/mL. Also, the “EC50 HRV 71” value in data set [8] (setting [17]) is above 10.0 µg/mL.

Turning to “N-(1-amino-4b-hydroxy-7-isopropyl-10-oxo-4b, 10-dihydro-9bH-indeno[1,2-b]benzofuran-9b-yl)-2-oxo hexanamide [Example 50]”, the “EC50 HRV 14” value in [1] (setting [17]) is below 0.1 µg/mL. Moreover, the “EC50 HRV 21” value in [2] (setting [17]) is above 10.0 µg/mL. Moreover, the “EC50 CoxB1” value in data set [3] is below 0.1 µg/mL. The “EC50 CoxB3” value in data set [4] is below 0.1 µg/mL. The “CC50 Cytotoxicity” value in data set [5] and in [7] was above 10.0 µg/mL each time. Besides, the “EC50 PV3” value in [6] was below 1.0 µg/mL. Also, in data set [8] (setting [17]), the “EC50 HRV 71” value was above 10.0 µg/mL.

Regarding `CCCC(=O)C(=O)NC12C(=O)c3cccc([N+](=O)[O-])c3C1(O)Oc1cc(C(C)C)ccc12` (stereo not drawn) [Example 34, N-(4b-hydroxy-7-isopropyl-4-nitro-10-oxo-4b, 10-dihydro-9bH-indeno[1,2-b]benzofuran-9b-yl)-2-oxo pentanamide], the EC50 in data set [1] (setting [17]) is below 10 µg/mL; in data set [2] (setting [17]), above 10 µg/mL; in [3], below 1 µg/mL; in data set [4], below 10 µg/mL; in data set [6], below 10 µg/mL; in [8] (setting [17]) it was above 10 µg/mL. Besides, the CC50 in data set [15] was above 10 µg/mL. This molecule yielded a CC50 at 3 days in [11] above 10 µg/mL.

On to `CCOC(=O)/C=C/[C@H](C[C@@H]1CCNC1=O)NC(=O)[C@@H](CC(=O)[C@@H](NC(=O)c1cc(C)on1)C(C)C)Cc1ccc(F)cc1` [AG 7088], for which, in data set [16], the “concentration range of effect in the cell culture” value is reported as “nanomolar concentration range”.

For `CC(C)c1ccc2c(c1)OC1(O)c3c(cccc3[N+](=O)[O-])C(=O)C21NC(=O)C(=O)N(C)C` (stereo not drawn) [Example 30, N1-(4b-hydroxy-7-isopropyl-4-nitro-10-oxo-4b, 10-dihydro-9bH-indeno[1,2-b]benzofuran-9b-yl)-N2-N2-dimethyl oxal amide], the EC50 in data set [1] (setting [17]) is above 10 µg/mL; in [2] (setting [17]) it was above 10 µg/mL; in data set [3] it was below 10 µg/mL; in data set [4], below 10 µg/mL; in data set [6] it was above 10 µg/mL; in data set [8] (setting [17]), above 10 µg/mL. This molecule showed a CC50 in [15] above 10 µg/mL. In addition, the CC50 at 3 days in [11] was above 10 µg/mL.

Turning to `CC(C)c1ccc2c(c1)OC1(O)c3ccccc3C(=O)C21NC(=O)CCC(=O)O` (stereo not drawn) [Example 43], the EC50 is above 10 µg/mL in data set [1] (setting [17]); above 10 µg/mL in data set [2] (setting [17]); below 1 µg/mL in [3]; below 1 µg/mL in data set [4]; above 10 µg/mL in data set [6]; above 10 µg/mL in data set [8] (setting [17]). The molecule also yielded a CC50 in data set [15] above 10 µg/mL. Besides, the CC50 at 3 days in data set [11] is above 10 µg/mL.

In the case of `CCNC(=O)OC12C(=O)c3ccccc3C1(OC)Oc1cc(C(C)C)ccc12` (stereo not drawn) [Example 62, 7-isopropyl-4b-methoxy-10-oxo-4b, 10-dihydro-9bH-indeno[1,2-b]benzofuran-9b-yl ethyl carbamate], the EC50 in [1] (setting [17]) is above 10 µg/mL; in [2] (setting [17]), above 10 µg/mL; in data set [3], below 10 µg/mL; in data set [4], below 10 µg/mL; in [6], above 10 µg/mL; in data set [8] (setting [17]), above 10 µg/mL. The CC50 in data set [15] was above 10 µg/mL. The same molecule yielded a CC50 at 3 days in [11] above 10 µg/mL.

Turning to `CC(C)c1ccc2c(c1)OC1(O)c3ccccc3C(=O)C21OC(=O)NCCNC(=O)OC(C)(C)C` (stereo not drawn) [Example 56, Tert-butyl (4b-hydroxy-7-isopropyl-10-oxo-4b, 10-dihydro-9bH-indeno[1,2-b]benzofuran-9b-yl)ethan-1,2-diyl dicarbamate], the EC50 in [1] (setting [17]) was above 10 µg/mL; in data set [2] (setting [17]), above 10 µg/mL; in data set [3] it was below 10 µg/mL; in data set [4] it was below 10 µg/mL; in data set [6] it was above 10 µg/mL; in data set [8] (setting [17]) it was above 10 µg/mL. The CC50 in data set [15] is above 10 µg/mL. This molecule had a CC50 at 3 days in data set [11] above 10 µg/mL.

The term EC50 denotes the midpoint of the concentration-response curve.
